Assay [1] deals with S. typhimurium strain DT 104. The following applies: isolates with decreased fluoroquinolone sensitivity; cited from earlier work.
The test system of a further assay is S. aureus SHY97-3906. Nature of the assay: Bacterial growth in MHB. In kind it is cell-based, Staphylococcus aureus. The following applies: combination of erythromycin and LF; 18-h of incubation. The procedure:
(§1) The effect of LF or LFC at concentration sub-MICs alone or in combination with sub-MICs of antibiotics on bacterial growth rate of S. aureus, E. coli and K. pneumoniae was determined by monitoring bacterial cultures in MHB with the O.D.600 nm or by the count of colony forming unit per ml (cfu/ml). A volume of 2.5 ml of overnight cultures in MHB adjusted to 0.5-1 McFarland standard in saline were used to inoculate a final volume of 25 ml of fresh MHB containing the desired concentration of tested compounds. All flasks were then incubated at 37° C. with agitation (200 rpm) for 9 h. Aliquots were removed every hour to determine the culture turbidity using the spectrophotometer Philips PU 8800 (Pye Unican Ltd, Cambridge, UK). The combined antibiotic effect on bacterial growth was also determined using concentrations of LF in the presence of different concentrations of antibiotics. Briefly, a volume of 3 ml of fresh MHB containing desired concentration of drugs was adjusted to an optical density of 0.4 at 540 nm after an overnight culture. The culture was then incubated at 37° C with agitation (200 rpm). After incubation, aliquots were removed to determine the culture turbidity (OD540nm) or cfu/ml. To determine the influence of the level of iron on of the growth inhibition by the test compound, 5 μM of FeCl3 were added to the media.

A further assay concerns S. aureus strains. Nature of the assay: Disk diffusion susceptibility test and cefinase test. In kind it is cell-based, Staphylococcus aureus. The following applies: β-lactamase producing strains. On the procedure: For quality control, disk diffusion susceptibility tests, as recommended by the National Committee for Clinical Laboratory Standard, were performed on all strains using standard disk of various antibiotics. After 18 h of incubation at 37° C., the diameter of the zone of complete inhibition of bacterial growth around each disk was measured. Isolates were categorized as sensitive or resistant for a given antibiotic using the recommended interpretative guidelines of the manufacturer.

For another assay, the system named is E. coli SHY97-3923. Nature of the assay: Bacterial growth in MHB. The class given is cell-based, Escherichia coli. On the procedure:
as §1

The test system of the next assay is K. pneumoniae SHY99-723. Nature of the assay: Bacterial growth in MHB. The class given is cell-based, Klebsiella pneumoniae. The procedure:
as §1

Assay [2] deals with Escherichia coli strain harboring TEM-12 beta-lactamase. The following applies: cited from earlier work.
The test system of assay [3] is Escherichia coli strain harboring wild TEM-1 beta-lactamase. The following applies: cited from earlier work.
Assay [4] relates to Escherichia coli strain harboring TEM-10 beta-lactamase. The following applies: cited from earlier work.
In assay [5] the test system is S. aureus PC-1. The assay can be described thus: Bacterial growth in MHB. In kind it is cell-based, Staphylococcus aureus. The following applies: LF or LFC alone, sub-MIC. The procedure:
as §1

Assay [6] relates to S. aureus PC-1. The assay can be described thus: Cell morphology by transmission electron microscopy. In kind it is cell-based, Staphylococcus aureus. The procedure: Bacterial cells were grown overnight on MHA or MHB containing sub-MICs of penicillin G with or without LF or LFC. Microorganisms were prepared for transmission electron microscopy by fixation with glutaraldehyde followed by ferritin labelling. This method allows good- preservation of capsular material. Briefly, bacterial cells grown in the presence or absence of antibiotics were fixed in cacodylate buffer (0.1 M, pH 7.0) containing 5% (v/v) glutaraldehyde, for 2 h at 20° C. Fixed microorganims were suspended in cacodylate buffer and allowed to react with the polycationic ferritin (Sigma Chemicals, St-Louis, Mo.; final concentration 1.0 mg/ml) for 30 min at 20° C. The reaction was slowed down by 10-fold dilution with buffer, and the microorganisms were centrifuged and washed three times in cacodylate buffer. Bacterial cells were then immobilized in 4% (w/v) agar, washed 5 times in cacodylate buffer and post-fixed with 2% (w/v) osmium tetroxide for 2 h. Washings were repeated as above, and the samples dehydrated in a graded series of acetone washes. Samples were then washed twice in propylene oxide and embedded in Spurr low-viscosity resin. Thin sections were post-stained with uranyl acetate and lead citrate and examined with an electron microscope (Philips 201) at an accelerating voltage of 60 kV.
Bacterial cells of PC-1 (a constitutively high producing β-lactamase strain) were grown overnight in MHB containing 8 μg/ml of penicillin G, 16 μg/ml of LFC alone or in combination for 4-h at 37° C. with agitation at 150 rpm. Bacteria cell morphology was evaluated by transmission electron microscopy after fixation and ferritin labelling method as previously described.

In assay [7] the test system is β-lactamase activity of S. aureus PC-1. The assay can be described thus: β-lactamase activity, nitrocefin assay, bovine LF/LFC. The following applies: LF 1 mg/ml (P<0.05); LFC 32 or 64 μg/ml (P<0.001). In kind it is cell-based. The procedure: The effects of sub-MICs of LF (1 mg/ml), LFC (32 and 64 μg/ml) alone or in combination with ampicillin (4μg/ml) or penicillin G (8 μg/ml) were evaluated on the β-lactamase activity of S. aureus strains SHY97-4320 and PC-1. The chromogenic cephalosporin nitrocefin (Becton Dickinson, Microbiology, Cockeysville, Md.) was used in a quantitative spectrophotometric assay. Bacterial cells were first exposed during 4 and 22-h to drugs in broth. The number of bacteria (cfu/ml) were determined and cells aliquots were centrifuged at each point in time. The pellets were suspended in 10 mM HEPES buffer (pH 7.4) to an OD415 nm of 1 for PC-1 and 2 for SHY97-4320. Nitrocefin (100 μM) was added to 100 μl of cells in a final volume of 1 ml. Hydrolysis was measured at 486 nm on spectrophotometer. β-lactamase activity was expressed as ΔO.D.486 nm/min and corrected for bacterial OD.

The source of these data is patent US20030134779A1, “Method and composition for treatment and/or prevention of antibiotic-resistant microorganism infections” (priority 2002, published 2003).

Consider `O=C(O)c1cn(C2CC2)c2cc(N3CCNCC3)c(F)cc2c1=O` [ciprofloxacin], for which the “MIC's of ciprofloxacin” value in assay [1] is 0.25 to 1.0 µg/mL.

For `CC[C@H]1OC(=O)[C@H](C)[C@@H](O[C@H]2C[C@@](C)(OC)[C@@H](O)[C@H](C)O2)[C@H](C)[C@@H](O[C@@H]2O[C@H](C)C[C@H](N(C)C)[C@H]2O)[C@](C)(O)C[C@@H](C)C(=O)[C@H](C)[C@@H](O)[C@]1(C)O` [erythromycin], the growth result in the assay with S. aureus SHY97-3906 was “affected”.

Turning to `CC1(C)S[C@@H]2[C@H](NC(=O)[C@H](N)c3ccccc3)C(=O)N2[C@H]1C(=O)O` [ampicillin], the “susceptibility by standard disk diffusion and cefinase test” value with S. aureus strains is on record as “resistance”.

As for `Cc1nnc(SCC2=C(C(=O)O)N3C(=O)[C@@H](NC(=O)Cn4cnnn4)[C@H]3SC2)s1` [cefazolin], the values for the growth result in the assay on E. coli SHY97-3923 (cefazolin alone (0.5 g)) and in the assay with E. coli SHY97-3923 (cefazolin with LFC) were “not able to reduce growth” and “completely inhibit bacterial growth”, respectively.

For the molecule neomycin, the “effect of neomycin on bacterial growth” value with E. coli SHY97-3923 (16 μg/ml LFC (1/16 MIC) added) and in the assay with E. coli SHY97-3923 (1 mg/ml of LF added) was “significantly enhanced” in each case. The “reduction of bacterial growth rate with neomycin” value in the assay with K. pneumoniae SHY99-723 (16 μg/ml LFC (1/16 MIC) added) and in the assay with K. pneumoniae SHY99-723 (0.5 mg/ml of LF added) was 2 times in each case.

Turning to `CO/N=C(\C(=O)N[C@@H]1C(=O)N2C(C(=O)O)=C(COC(C)=O)CS[C@H]12)c1csc(N)n1` [cefotaxime], the “conventional MIC of cefotaxime” value in assay [2] was 0.06 µg/mL. Also, the MIC of cefotaxime was 0.03 µg/mL in [3] and 0.25 µg/mL in assay [4].

For the molecule `CC[C@H](C)[C@@H]1NC(=O)[C@H](CO)NC(=O)[C@@H]2CCCN2C(=O)[C@H](C)NC(=O)CNC(=O)[C@H](CC(C)C)NC(=O)[C@H](CCCCN)NC(=O)[C@H](CCCCN)NC(=O)[C@H](CCSC)NC(=O)[C@H](CCCNC(=N)N)NC(=O)[C@H](Cc2c[nH]c3ccccc23)NC(=O)[C@H](CCC(N)=O)NC(=O)[C@H](Cc2c[nH]c3ccccc23)NC(=O)[C@H](CCCNC(=N)N)NC(=O)[C@H](CCCNC(=N)N)NC(=O)[C@@H](NC(=O)[C@H](CCCCN)NC(=O)[C@@H](N)Cc2ccccc2)CSSC[C@@H](C(=O)N[C@H](C(=O)N[C@@H](CCCNC(=N)N)C(=O)N[C@@H](CCCNC(=N)N)C(=O)N[C@@H](C)C(=O)N[C@@H](Cc2ccccc2)C(=O)O)C(C)C)NC(=O)[C@H]([C@@H](C)O)NC1=O` [LFC], in the assay on S. aureus PC-1 [5], the growth result was “delayed growth”. Besides, the “mesosome structures arising from the septa and cell wall” value in the assay on S. aureus PC-1 [6] (LFC 16 μg/ml) is reported as “induced formation of mesosome structures”. Also, the bacterial lysis entry in the assay with S. aureus PC-1 [6] (LFC 16 μg/ml alone, 4-h) was “A large percentage of lysed bacteria”. In the assay on S. aureus PC-1 [6] (LFC 16 μg/ml in the presence of penicillin G 8 μg/ml), the “bacterial lysis by LFC” value is on record as “enhanced”. In addition, in the assay on S. aureus PC-1 [6] (exposure to LF or LFC), the “shape and size of cells” value is “affected the shape and the size”. Also, the β-lactamase activity entry in assay [7] is “strong”.
